This note sets out measurements from paper PMC11611271, “Rapid prediction of key residues for foldability by machine learning model enables the design of highly functional libraries with hyperstable constrained peptide scaffolds” (PLOS Computational Biology, 2024).

Where a SMILES comes first, the peptide text is derived from it. Bridges are numbered along the chain shown (N, C = ends).

In one experiment the test system is CRD7. Put plainly: phage spot ELISA on CRD7. The format is binding. To be noted: for ELISA signal: phage spot ELISA of the clone, positive hit: signal > 0.3 and signal/noise > 2; for ELISA s/n: phage spot ELISA signal/noise ratio; for S/N: phage spot ELISA signal/noise; for S/N / ELISA: S3 Table sheet CRD7; for ELISA: phage spot ELISA signal. The text has this:
(§1) To determine the performance of the libraries for ligand discovery we chose a panel of eight protein targets, which have no structural homology and a wide mass range (Fig 7C). We screened these eight targets with solution panning strategy and two additional plate panning for CD8α/β and CD28, thus ten panning campaigns in total. We consider clones showing spot phage ELISA signal > 0.3 and signal/noise ratio > 2 as positive hits. At least one binding hit was discovered for nine out of the ten panning campaigns, surpassing the success rate of the best DCP scaffolds reported previously. We also obtained the NGS data for these screening and the ranking of clones for their enrichment along the rounds of screening was analyzed and considered the top-ranking clones as potential hits. Based on their sequence diversity we selected 16 potential hits spanning five protein targets for peptide synthesis in their linear form. Seven of these are hits with positive phage ELISA signal and nine were selected based on NGS ranking without spot ELISA available. Subsequently, we conducted in vitro folding experiments on these peptides in various buffers. We observed a strong propensity for spontaneous folding regardless of the buffer condition. All HCP hits tested successfully folded into three-disulfide-containing product within two days in a universal buffer system (PBS, pH 7.4, 50% DMSO) without the need for a redox pair, as shown in Fig 8A. The binding of these folded peptides to their respective target proteins was confirmed using SPR (Table 4 and S1 Data) and binding kinetics are exemplified by the high-affinity peptide 5ji4-CRD7-2 (see Fig 8B). Among seven selected ELISA-positive hits, all of them were successfully synthesized and in vitro folded with three disulfide bonds and five were proven to be validated binders by SPR (Table 4). Nine peptides selected from the NGS ranking were synthesized and folded with the expected number of disulfide bonds and five of them bound to their target with affinities in the μM range as determined by SPR (Table 4). In general, binding affinities for these SPR-validated initial hits are weak, with Kd values in the micromolar range and fast on- and off-rates. There are two exceptions with binding affinities in the nanomolar range.
(§2) The 5ji4 libraries were constructed following the Kunkel mutagenesis method and the solution panning protocol was followed as previously described. After four to five rounds of binding selection, while eluted pool was subjected to NGS analysis, individual phage clones were also picked and analyzed with phage spot ELISA. Positive clones were subjected to SANGER sequencing.

The subject of another experiment is CD28. Nature of the experiment: phage spot ELISA on CD28. It is filed as binding. To be noted: for S/N: phage spot ELISA signal/noise; for ELISA: phage spot ELISA signal.
Text: as §1, §2
On the technique in general: An ELISA detects its analyte on a solid surface through an enzyme-linked reagent.

Where [1] appears, read: S3 Table sheet CD28-1 (panning campaign 1).
[2] abbreviates: S3 Table sheet CD28-2 (panning campaign 2).

Regarding `CC[C@H](C)[C@@H]1NC(=O)[C@@H]2CCCN2C(=O)[C@@H]2CSSC[C@H](NC(=O)[C@H](CCC(=O)O)NC(=O)[C@H](CCC(=O)O)NC(=O)[C@H](CO)NC(=O)[C@H](CO)NC(=O)[C@H](CCCCN)NC(=O)[C@H](C(C)C)NC(=O)[C@@H]3CCCN3C(=O)[C@H](C(C)C)NC(=O)CNC(=O)[C@H](Cc3ccc(O)cc3)NC(=O)[C@@H]3CCCN3C(=O)[C@H](CCCNC(=N)N)NC1=O)C(=O)N[C@@H](CCC(=O)O)C(=O)N[C@@H](CCCNC(=N)N)C(=O)N[C@@H](CC(C)C)C(=O)N[C@H]1CSSC[C@H](NC(=O)[C@H](CC(N)=O)NC(=O)[C@H]([C@@H](C)O)NC(=O)[C@H](C(C)C)NC(=O)CNC(=O)[C@H](CC(C)C)NC(=O)[C@H](CCCCN)NC(=O)[C@H](CCCNC(=N)N)NC1=O)C(=O)N[C@@H](CCCNC(=N)N)C(=O)N[C@@H](C(C)C)C(=O)N[C@@H](Cc1c[nH]cn1)C(=O)N[C@H](C(=O)NCC(=O)O)CSSC[C@H](NC(=O)[C@@H]1CCCN1)C(=O)N[C@@H](CCC(=O)O)C(=O)N2` [5ji4-CRD7-2] (H-PCECPIRPYGVPVKSSEECERLCRKLGVTNCRVHCG-OH; disulfide 2-35, 4-19, 23-31), in the experiment with CRD7, the ELISA signal is listed as 0.37 and the ELISA s/n stood at 4.60.
As to `CSCC[C@@H]1NC(=O)[C@@H]2CSSC[C@H](NC(=O)[C@H]([C@@H](C)O)NC(=O)[C@H]([C@@H](C)O)NC(=O)[C@H](C)NC(=O)[C@H](Cc3c[nH]c4ccccc34)NC(=O)[C@H](CC(=O)O)NC(=O)[C@H](CC(N)=O)NC1=O)C(=O)N[C@@H](CCCNC(=N)N)C(=O)N[C@@H](C(C)C)C(=O)N[C@@H](Cc1c[nH]cn1)C(=O)N[C@H](C(=O)NCC(=O)O)CSSC[C@H](NC(=O)[C@@H]1CCCN1)C(=O)N[C@@H](CCC(=O)O)C(=O)N[C@H]1CSSC[C@H](NC(=O)[C@H](CCC(=O)O)NC(=O)[C@H](CCC(=O)O)NC(=O)[C@H](CO)NC(=O)[C@H](CO)NC(=O)[C@H](CO)NC(=O)[C@H](C(C)C)NC(=O)[C@H]([C@@H](C)O)NC(=O)[C@H](Cc3ccc(O)cc3)NC(=O)[C@H]([C@@H](C)O)NC(=O)[C@H](CCC(=O)O)NC(=O)CNC(=O)[C@H](CC(N)=O)NC(=O)[C@H](C(C)C)NC(=O)[C@H](CC(=O)O)NC1=O)C(=O)NCC(=O)N[C@@H](CCCNC(=N)N)C(=O)N[C@@H](CC(C)C)C(=O)N2` [5ji4-CRD7-3] (H-PCECDVNGETYTVSSSEECGRLCMNDWATTCRVHCG-OH; disulfide 2-35, 4-19, 23-31), in the experiment with CRD7, the ELISA signal was 0.65 and the ELISA s/n was found to be 9.52.
In the experiment on CRD7, “PCECDVNGETYTVSSSEECGRLCMNDWATTCRVHCG [CRD7 clone 7, phage clone, 5JI4 library, CRD7 panning]” returned a S/N of 14.5714 and an ELISA of 0.918.
In the experiment with CRD7, “PCECDVNGETYTVSSSEECGRLCMQPWAHTCRVHCG [CRD7 clone 9, phage clone, 5JI4 library, CRD7 panning]” came in with a S/N of 4.522 and an ELISA of 0.312.
In the experiment on CRD7, “PCECDVNGETYTVSSSEECGRLCMTDWVTSCRVHCG [CRD7 clone 8, phage clone, 5JI4 library, CRD7 panning]” gave a S/N of 5.905 and an ELISA of 0.372.
In the experiment on CRD7, “PCECIWANYVGYPFSSEECERLCRKLGVTNCRVHCG [CRD7 clone 3, phage clone, 5JI4 library, CRD7 panning]” came in with a S/N of 2.388 and an ELISA of 0.289.
Regarding “PCECNYIPWIWIPQSSEECERLCRKLGVTNCRVHCG [CRD7 clone 5, phage clone, 5JI4 library, CRD7 panning]”, in the experiment on CRD7, the S/N was 3.588 and the ELISA was 0.244.
Take “PCECPATVHWYFIGSSEECERLCRKLGVTNSRVHCD [CRD7 clone 1, phage clone, 5JI4 library, CRD7 panning]”: in the experiment on CRD7, the S/N is 7.871 and the ELISA is 0.488.
With “PCECPIRPYGVPVKSSEECERLCRKLGVTNCRVHCG [CRD7 clone 2, phage clone, 5JI4 library, CRD7 panning]”, in the experiment on CRD7, the S/N amounted to 4.654 and the ELISA was 0.377.
For “PCECPSSVYWYFISSSEECERLCRKLGVTNCRVHCG [CRD7 clone 6, phage clone, 5JI4 library, CRD7 panning]”, in the experiment with CRD7, the S/N amounted to 3.75 and the ELISA is 0.225.
In the experiment on CD28 (setting [1]), “PCECQENTTFIIYSSSEECERLCRKLGVTNCRVHCG [CD28-1 clone 12, phage clone, 5JI4 library, CD28-1 panning]” showed a S/N of 1.979 and an ELISA of 0.192.
In the case of “PCECRWMFYSTWELSSEECERLCRKLGVTNCRVHCG [CRD7 clone 4, phage clone, 5JI4 library, CRD7 panning]”, in the experiment on CRD7, the S/N was found to be 4 and the ELISA is on record as 0.28.
In the experiment with CD28 (setting [1]), “PCEFARQNVFIVHSSSEECERLCRTLGVTNCRVHCG [CD28-1 clone 8, phage clone, 5JI4 library, CD28-1 panning]” showed a S/N of 1.6194 and an ELISA of 0.217.
In the experiment on CD28 (setting [1]), “PCESIQDVWIIHDSSEECERLCRKLGVTNCRVHCG [CD28-1 clone 6, phage clone, 5JI4 library, CD28-1 panning]” gave a S/N of 2.28 and an ELISA of 0.244.
In the experiment with CD28 (setting [1]), “PCESQSMQHFIIYNSSEECERLCRKLGVTNCRVHCG [CD28-1 clone 1, phage clone, 5JI4 library, CD28-1 panning]” registered a S/N of 4.839 and an ELISA of 0.542.
In the experiment on CD28 (setting [1]), “PCEYQTWRVVIPDASSEECERLCRKLGVTNCRVHCG [CD28-1 clone 3, phage clone, 5JI4 library, CD28-1 panning]” showed a S/N of 4.407 and an ELISA of 0.4.
In the experiment with CD28 (setting [1]), “PRECDEDNIWIIANSSEECERLCRKLGVTNCRVHCG [CD28-1 clone 9, phage clone, 5JI4 library, CD28-1 panning]” showed a S/N of 1.511 and an ELISA of 0.213.
In the experiment on CD28 (setting [2]), “PWNANVNGETYTVSSSEECERLCSAGLVNSCRVHCG [CD28-2 clone 1, phage clone, 5JI4 library, CD28-2 panning]” displayed a S/N of 7.9375 and an ELISA of 0.508.
With “PYECWRGQYFIIYKSSEECERLCRKLGVTNCRVHCG [CD28-1 clone 11, phage clone, 5JI4 library, CD28-1 panning]”, in the experiment with CD28 (setting [1]), the S/N turned out to be 2.209 and the ELISA was found to be 0.201.
On the same counts, the results for “RANAFWVVLVPDGGSSEECERLCRKLGVTNCRVHCG [CD28-1 clone 4, phage clone, 5JI4 library, CD28-1 panning]” are 2.932 and 0.4.
“RANATEWVPWIIYQSSEECERLCRKLGVTNCRVHCG [CD28-1 clone 2, phage clone, 5JI4 library, CD28-1 panning]”: in the experiment with CD28 (setting [1]), the S/N is on record as 5.637 and the ELISA came out at 0.5.
